Assay results as given in patent publication US9000155B2, “Cyclic triazo sodium channel blockers” (University of Greenwich, priority 2009, dated 2015).
“And” between values parts separate entries of the source, which are not always exact repeats. Equal entries are not always repeated. Structures can show the parent of a compound that is named as a salt. Where two headings read alike, the source gives them in different places.

Key:
[1] = tested on: maximal electroshock-induced tonic convulsions; test: Rat MES (Maximal ElectroShock) anticonvulsant test; type: in vivo; conditions: for MES Results (% protection): n = 5 rats; for ED50: Rattus norvegicus, po
Protocol: Male Wistar rats provided by BioLasco Taiwan (under Charles River Laboratories Technology Licensee) were used. Space allocation for 5 animals was 45×23×21 cm. Animals were housed in animal cages and maintained in a controlled temperature (21-23° C.) and humidity (50%-70%) environment with 12 hours light/dark cycles for at least three days in MDS Pharma Services—Taiwan Laboratory prior to use. Free access to standard lab chow for rats [MF-18 (Oriental Yeast Co., Ltd. Japan)] and reverse osmosis (RO) water were granted ad libitum. All aspects of this work including housing, experimentation and disposal of animals were performed in general accordance with the Guide for the Care and Use of Laboratory Animals (National Academy Press, Washington, D.C., 1996).
Test compounds were suspended/dissolved in 2% Tween 80 and dosed orally at a dose volume of 10 ml/Kg to groups of 5 Wistar male rats weighing 180+/−20 g, one hour before maximal electroshock (MES, 60 Hz sine wave, 150 mA, 200 msec duration) was applied through corneal electrodes. Appearance of maximal electroshock-induced tonic convulsions (MES) was determined for each animal. 50 percent or more (50%) inhibition of tonic convulsions by test substance indicates significant anticonvulsant activity.
Test substances (CEN-216, CEN-145, CEN-148, CEN-152 and CEN-154) at 14, 42 or 100 mg/kg were administered orally to groups of 5 Wistar derived male rats weighing 180±20 g.
In rat model of epilepsy (Maximal ElectroShock—MES), in which compounds were dosed orally one hour prior to ‘shock’, the ED50 (effective dose to protect 50% of rats from limb extension etc.) for CEN-216 is approx 9 mg/kg free base.

sodium channel = type: biochemical, rat; conditions: read-out: [14C]guanidine flux Mean IC50
From the text: The screening strategy is designed to select compounds with appropriate sodium channel blocking activity and low side effect liability. To this end all compounds are processed through the primary sodium channel assay (veratrine-evoked uptake of [^14C]guanidine into rat forebrain synaptosomes) and IC50 values computed from generated concentration-effect curves.
Following killing of animals by stunning and decapitation, the forebrain (whole brain less cerebellum/medulla) was rapidly dissected and transferred to a weighed tube containing ice-cold 0.25M sucrose.
Synaptosomes (heavy and light mitochondrial fraction containing synaptosomes) were prepared by transferring the forebrain (of known wet weight) to a glass Potter vessel to which 9 volumes ice-cold 0.25M sucrose had been added and homogenising, using a teflon pestle, by 8 ‘up and down strokes’ of a Braun Potter S motor driven homogeniser set to 900 rpm. The resulting homogenate was centrifuged at 1036×g at 4° for 10 min and the supernatant collected. The remaining pellet was resuspended, as above, in fresh ice-cold 0.25M sucrose and the centrifugation step repeated. The supernatant fractions were pooled and centrifuged at 40,000×g (average) at 4° for 15 min and the resulting pellet resuspended in the appropriate assay buffer at a concentration of 20-25 mg wet weight per ml appropriate assay buffer. […]

Microsome stability = type: in vitro ADME, human; conditions: 1 μM
Protocol: Compounds were sent to BioFocus for measurement of their stability @ 1 μM concentration following incubation with rat liver microsomes for 40 minutes @ 37°.

Sodium Channel, Site 2 = test: Inhibition of binding of [3H]BTX-B to Wistar rat brain
[2] = tested on: maximal electroshock (MES); test: Mouse MES model of epilepsy; type: in vivo; conditions: 72 mg/Kg (free base) po
Protocol: In mouse model of epilepsy (MES), compounds CEN-079 and CEN-216 were dosed orally (100 and 72 mg/kg free base respectively) @ 1 h, 6 h and 24 h prior to ‘shock).

L-Type Calcium Channels = test: L-type calcium channel binding ([3H]nitrendipine, rat cerebral cortex membranes)
From the text: Compounds were sent to MDS Pharma for measurement of their inhibition @ […] of the binding of [^3H]nitrendipine to rat cerebral cortex membranes.

hERG = molecular target: T1, hERG (Homo sapiens, UniProt Q12809); test: Inhibition of binding of [3H]astemizole to HEK-293 cells expressing hERG; conditions: for inhibition at 10 µM: human, HEK-293 cells expressing human recombinant hERG, probe [3H]astemizole
T1 construct: host or cells: HEK-293
T1 sequence (Q12809 whole entry): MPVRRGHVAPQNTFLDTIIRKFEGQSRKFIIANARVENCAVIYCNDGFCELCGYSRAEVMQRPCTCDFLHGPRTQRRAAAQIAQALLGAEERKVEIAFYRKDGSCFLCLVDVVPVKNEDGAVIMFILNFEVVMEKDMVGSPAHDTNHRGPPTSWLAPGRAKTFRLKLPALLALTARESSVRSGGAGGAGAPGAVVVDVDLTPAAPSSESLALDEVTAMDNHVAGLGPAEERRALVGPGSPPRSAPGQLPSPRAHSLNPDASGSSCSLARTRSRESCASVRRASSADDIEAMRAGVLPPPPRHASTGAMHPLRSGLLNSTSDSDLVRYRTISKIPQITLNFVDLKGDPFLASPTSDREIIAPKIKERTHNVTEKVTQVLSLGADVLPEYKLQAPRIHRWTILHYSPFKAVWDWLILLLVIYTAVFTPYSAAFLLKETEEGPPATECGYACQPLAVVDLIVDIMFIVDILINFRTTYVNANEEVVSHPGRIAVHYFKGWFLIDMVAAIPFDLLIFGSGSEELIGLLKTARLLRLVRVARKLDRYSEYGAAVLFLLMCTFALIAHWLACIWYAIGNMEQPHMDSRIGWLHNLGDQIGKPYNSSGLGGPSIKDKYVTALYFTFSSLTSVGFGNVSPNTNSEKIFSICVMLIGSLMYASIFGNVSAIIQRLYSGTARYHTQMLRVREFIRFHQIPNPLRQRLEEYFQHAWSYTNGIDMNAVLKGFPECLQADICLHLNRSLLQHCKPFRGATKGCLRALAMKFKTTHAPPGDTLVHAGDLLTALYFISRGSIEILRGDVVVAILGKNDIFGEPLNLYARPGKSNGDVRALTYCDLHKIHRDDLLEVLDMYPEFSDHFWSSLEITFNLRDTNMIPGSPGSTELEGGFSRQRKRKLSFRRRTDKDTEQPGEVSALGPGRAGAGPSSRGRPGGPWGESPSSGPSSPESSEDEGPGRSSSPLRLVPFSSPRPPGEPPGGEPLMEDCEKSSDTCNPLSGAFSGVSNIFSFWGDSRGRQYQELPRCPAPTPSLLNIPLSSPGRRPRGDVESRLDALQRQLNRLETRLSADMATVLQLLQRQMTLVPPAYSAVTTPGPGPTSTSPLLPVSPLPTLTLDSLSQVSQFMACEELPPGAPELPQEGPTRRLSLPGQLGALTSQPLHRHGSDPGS
Protocol: Another common side-effect marker is inhibition of human Ether-a-go-go Related Gene potassium (hERG) potassium channel (Inward rectifying, IKr) activity which can be fatal due to heart failure brought about by development of long QT syndrome. A useful preliminary screen to assess potential to affect this channel is assessed by measurement of inhibition of the binding of [3H]astemizole to cell membranes expressing hERG. Selected compounds are tested for this activity by measurement of inhibition @ 10 μM.
Compounds were sent to MDS Pharma for measurement of their inhibition @ 10 μM concentration of the binding of [^3H]astemizole to HEK-293 cells expressing human recombinant hERG.

[3] = tested on: 0.4 mm slices of rat hippocampus; type: cell-based
[4] = extrapolated, read-out: Nach ([3H]BTX-B) (extrapolated IC50 μM)
[5] = read-out: [3H]BTX-B binding Extrapolated IC50
[6] = extrapolated, read-out: hERG ([3H]astemizole) (extrapolated IC50 μM)
[7] = hERG IC50 (μM) (extrapolated from 10 μM inh'n), extrapolated from 10 μM inhibition, slope assumed 1.0
[8] = 1 h, read-out: Rat MES ED50 (very approx, from single 100 mg/kg dose), free base, one hour prior to shock

Structure (SMILES): Nc1nnc(-c2cccc(Cl)c2Cl)c(N)n1 [CEN-1, 3,5-Diamino-6-(2,3-dichlorophenyl)-1,2,4-triazine, reference compound]
- MES Results (% protection) ([1]; 3 mg/kg po): 60%
- MES Results (% protection) ([1]; 10 mg/kg po): 100%
- MES Results (% protection) ([1]; 25 mg/kg po): 100%
- IC50 (sodium channel): 219 µM
- Microsome stability (human) % metabolized (40 min incubation 37°) (Microsome stability): 20%

Structure (SMILES): N=c1nc(N)c(-c2cccc(Cl)c2Cl)nn1CC(Cl)(Cl)Cl [CEN-216, 5(3)-Amino-6-(2,3-dichlorophenyl)-2,3(2,5)-dihydro-3(5)-imino-2-(2,2,2-trichloroethyl)-1,2,4-triazine trifluoromethanesulphonate]
- MES Results (% protection) ([1]; 1 mg/kg po): 0%
- MES Results (% protection) ([1]; 3 mg/kg po): 0%
- Rat MES (anticonvulsant in vivo) % protection ([1]; 10 mg/Kg (free base) po): 80%
- MES Results (% protection) ([1]; 10 mg/kg po): 80%
- MES Results (% protection) ([1]; 30 mg/kg po): 100%
- MES Results (% protection) ([1]; 100 mg/kg po): 100%
- ED50 ([1]; 1 h, free base, dosed orally one hour prior to shock, read-out: Rat MES ED50 (effective dose to protect 50% of rats)): ~9 mg/kg
- ED50 ([1]; read-out: Rat MES ED50): 9 mg/kg
- [3H]BTX-B binding % inhibition (@ 10 μM) (Sodium Channel, Site 2): 42%
- IC50 (Sodium Channel, Site 2; [4]): 20 µM
- IC50 (Sodium Channel, Site 2; [5]): 13.8 µM
- Microsome stability (human) % metabolized (40 min incubation 37°) (Microsome stability): 0%
- duration of action following po dose in mouse [2]: long duration of action
- Mouse MES % protection ([2]; 1 h prior to shock): 100%
- Mouse MES % protection ([2]; 6 h prior to shock): 100%
- Mouse MES % protection ([2]; 24 h prior to shock): 100%
- L-type Ca2+ % inhibition @ 10 μM (L-Type Calcium Channels; 10 μM): 27%
- IC50 (L-Type Calcium Channels; extrapolated, read-out: extrapolated IC50 in L-type Calcium (phenylalkylamine site) binding assay): 27 µM
- IC50 (L-Type Calcium Channels; read-out: L-type Ca2+ IC50 (μM) (extrapolated from 10 μM inh'n), extrapolated from 10 μM inhibition, slope assumed 1.0): 27 µM
- IC50 (hERG; [6]): 50 µM
- IC50 (hERG; [7]): 73.3 µM
- inhibition at 10 µM (hERG): 12%

Structure (SMILES): N=c1nc(N)c(-c2cccc(Cl)c2Cl)nn1CC(F)(F)C(F)(F)F [CEN-217]
- Rat MES (anticonvulsant in vivo) % protection ([1]; 100 mg/Kg (free base) po): 60% and 60 @ 100%
- MES Results (% protection) ([1]; 100 mg/kg po): 60%
- ED50 [1, 8]: ~80 mg/kg
- [3H]BTX-B binding % inhibition (@ 10 μM) (Sodium Channel, Site 2): 105%
- IC50 (Sodium Channel, Site 2; [4]): < 0.5 µM
- IC50 (Sodium Channel, Site 2; [5]): < 0.5 µM
- IC50 (hERG; [6]): 26 µM
- IC50 (hERG; [7]): 25.7 µM
- inhibition at 10 µM (hERG): 28%

Structure (SMILES): N=c1nc(N)c(-c2cccc(Cl)c2Cl)nn1CC(F)(F)C(F)F [CEN-218]
- Rat MES (anticonvulsant in vivo) % protection ([1]; 100 mg/Kg (free base) po): 40 @ 100%
- Rat MES (anticonvulsant in vivo) % protection ([1]; 100 mg/Kg (free base) po, listed as 218): 40%
- MES Results (% protection) ([1]; 100 mg/kg po): 40%
- ED50 [1, 8]: ~120 mg/kg
- [3H]BTX-B binding % inhibition (@ 10 μM) (Sodium Channel, Site 2): 108%
- IC50 (Sodium Channel, Site 2; [4]): < 0.5 µM
- IC50 (Sodium Channel, Site 2; [5]): < 0.5 µM
- IC50 (hERG; [6]): 40 µM
- IC50 (hERG; [7]): 40 µM
- inhibition at 10 µM (hERG): 20%

Structure (SMILES): N=c1nc(N)c(-c2cc(Cl)cc(Cl)c2Cl)nn1CC(Cl)(Cl)Cl [CEN-248]
- Rat MES (anticonvulsant in vivo) % protection ([1]; 30 mg/Kg (free base) po): 100% protection @ 30
- MES Results (% protection) ([1]; 30 mg/kg po): 100%
- [3H]BTX-B binding % inhibition (@ 10 μM) (Sodium Channel, Site 2): 27%
- IC50 (Sodium Channel, Site 2; [4]): 27 µM
- IC50 (Sodium Channel, Site 2; [5]): 27 µM

Structure (SMILES): O=C1NC(=O)C(c2ccccc2)(c2ccccc2)N1 [DiPhenylHydantoin, Diphenylhydantoin sodium salt, reference compound]
- MES Results (% protection) ([1]; 100 mg/kg po): 80%
- % protection (v 1 μM TTX) (mean ± sem) [3]: 48%

Structure (SMILES): NC1=N[C@H](O)[C@H]2[C@H]3O[C@]4(O)O[C@@H]([C@@H](O)[C@@]2(N1)[C@@H]4O)[C@]3(O)CO [TTX, tetrodotoxin]
- % protection (v 1 μM TTX) (mean ± sem) [3]: 100%
